# Test system: Salmonella typhimurium TA104 strain
# Format: cell-based
# Method: Genotoxicity Test Using Salmonella typhimurium TA104 Strain Carrying a Reporter Gene Under the Control of DNA Repair Enzyme recN (Vitotox Test)
# To prepare agents for stock of tester strain, Amp solution (50 mg/mL) and Tet solution (10 mg/mL) were prepared, and then LB-agar plate (35 mg/mL+Amp (100 μg/mL)+Tet ([…])) was prepared, and LB medium (20 mg/mL+Amp (100 μg/mL)+Tet (20 μg/mL)) was prepared. Then, LB medium for pre-incubation (10 mg/mL), LB medium for test (4 mg/mL) and enhancer reagent (50 mg (CaCl2.H2O)/mL) were prepared.
# Freezing stock of bacterial strain was thawed to be streaked on LB-agar plate, and incubated in an incubator (TITEC, BIO-SHAKER BR-15) at 37° C. overnight. […]
# A solution for positive control was prepared as below. […] When the test compound was completely dissolved, the highest concentration as prepared was determined to be a highest dose, and when a precipitate was found, a homogeneous suspension which was able to be pipetted was determined to be a highest dose.
# After a fluorescent and luminescent photometer (Thermo Labsystem, Fluoroskan Ascent FL), plate and medium for test were set up, Genox and Cytox reaction solutions were prepared as below. Dilution factor as well as requisite amounts for medium for test, pre-incubation strain solution, Enhancer Reagent and S9 mix were calculated so that OD590 was set as about 0.03 for each culture solution. […]
compound,measurement,value
Nc1cnc(N2CCC(O)CC2)c(C2CC2)c1 [1-(5-amino-3-cyclopropylpyridin-2-yl)piperidin-4-ol],Genotoxicity (Vitotox test),negative

# — patent US9527859B2, “Amidopyridine derivative and use thereof” (Mitsubishi Tanabe Pharma Corporation, priority 2012, dated 2016)
